How the values were obtained:
RL tumor spheroids = test: RL tumor spheroid model with anti-CD19 CAR T cells; format: cell-based; conditions: Day 4; 1 μM Compound 1; 0.01 μM or 0.1 μM Compound 2
Protocol: Cytolytic activity was also assessed in a spheroid model. About 5,000 RL cells were plated 48 hours prior to addition of 5,000 anti-CD19 CAR T cells (1:1 E:T ratio).

Aiolos = molecular target: T1, Aiolos (Homo sapiens, UniProt Q96SW2+Q9UKT9); test: Intracellular Aiolos expression in anti-CD19 CAR+ T cells stimulated with 1 μg/ml CAR-specific anti-idiotypic antibody; format: cell-based; conditions: 10 to 10000 nM, overnight
T1 construct: assess intracellular levels of Ikaros and Aiolos in CD4+ CAR+ or CD8+ CAR+ cells; endogenous in cells; host or cells: primary human CD4+ and CD8+ T cells transduced with an anti-CD19 CAR (FMC63 scFv)
Protocol: (§1) Following overnight incubation, anti-CD19 CAR-expressing T cells were stained with antibodies and analyzed by flow cytometry to assess intracellular levels of Ikaros and Aiolos in the CD4+ CAR+ or CD8+ CAR+ cells, as measured by median fluorescence intensity (MFI).
as §1, with “in” for “in the”, “(MFI). Median fluorescence intensity (MFI) values for Ikaros and Aiolos were normalized and calculated as a percentage relative to vehicle control.” for “(MFI).”

[1] = system: CD19 directed CAR-expressing T cells; test: Antigen-dependent cytokine production by CD19 directed CAR-expressing T cells; format: cell-based, human; conditions: compared to vehicle control or equimolar concentrations of lenalidomide
Excerpt: […]. […] Data represents the mean+/−S.D. across 3 experiments.

[2] = system: anti-CD19 CAR-expressing T cells; test: Cytokine production after anti-idiotypic antibody stimulation of anti-CD19 CAR+ T cells; format: cell-based, human; conditions: 24 hours; anti-idiotypic antibody 0.3, 3 and 30 μg/ml
Protocol: Cytokine expression and expression of surface markers of anti-CD19 CAR-expressing T cells were assessed.

anti-CD19 CAR T cells = test: RNA-seq of anti-CD19 CAR T cells, compound concurrent with long-term stimulation; format: cell-based, human; conditions: present during chronic stimulation
Protocol: Gene expression was analyzed by RNA sequencing (RNA-seq) on the complementary DNA (cDNA) samples prepared from the RNA isolated from the long-term stimulated CAR-expressing T cells or on CAR-expressing T cells that had not undergone the long-term stimulation.

[3] = system: anti-CD19 CAR-expressing T cells with K562.CD19 cells; test: Serial stimulation of anti-CD19 CAR+ T cells with irradiated K562.CD19 cells (surface markers, cytolytic activity, expansion); format: cell-based, human; conditions: CD4+ and CD8+ CAR-expressing T cells, all three donors
RL CD19+ tumor cells = test: Acute cytolytic activity, anti-CD19 CAR T cells co-cultured with RL CD19+ tumor cells; format: cell-based
Protocol: Acute cytolytic activity was measured by tumor cell number over time.

[4] = system: Granta-519 tumor spheroids; test: Granta-519 spheroid tumor growth assay, rescue treatment after chronic stimulation; format: cell-based, human
Protocol: Long-term, chronic stimulation was carried out by stimulation of CAR T cells with 30 μg/mL plate-bound anti-idiotypic (anti-ID) antibody for 6 days, substantially as described in Example 22.
Cells were assessed at various time points for cytolytic function and cytokine function. […] Averaged measurement of tumor spheroid size at Day 9 following co-culture with CAR-T cells was assessed. […] The log 2 fold change compared to control cells (chronically stimulated cells that had not been treated with immunomodulatory compound) is shown in FIG. 49C.

[5] = system: IMiD/CELMoD resistant cell line DF-15R; test: Rescue of chronically stimulated anti-BCMA CAR T cells rechallenged with DF-15R; format: cell-based; conditions: rechallenge with DF-15R
Protocol: Cytolytic activity and cytokine production following the rechallenge were assessed as described above.

anti-CD19 CAR+ T cells = test: CD25 and PD-1 surface expression on anti-CD19 CAR+ T cells incubated with K562-CD19 cells; format: cell-based, human
Protocol: After 120 hours of culture, cells were isolated and assessed by flow cytometry for surface expression of CD25 or PD-1 in CD4+ or CD8+ T cell subsets.

anti-BCMA CAR+ T cells = test: T cell markers on anti-BCMA CAR+ T cells stimulated with BCMA-conjugated beads; format: cell-based, human
Protocol: Approximately 1.5×10^6 CAR+ T cells were added to wells of a 12-well plate and were incubated with beads from a 200 μg/ml BCMA-conjugated bead composition at a ratio of CAR+ T cell to BCMA-conjugated bead of 1:0.3, 1:1 or 1:3 (approximately 0.5×10^6, 1.5, 10^6, and 4.5×10^6 beads per well, respectively). As controls, 5 μg/mL anti-CD3 antibody was coated to wells (sub-optimal concentration for stimulation) or cells were seeded in the absence of any agent (no stimulation control). […] The cells were incubated for four days and then analyzed by flow cytometry for surface expression of CD4, CD8, Tim3, PD-1, CD25 and CD69.
In a further experiment, anti-BCMA CAR-T cell compositions produced substantially as described in Example 1 were plated in 96-well plates at a density of 5×10^5 cells per well. The tested CAR-T cell compositions contained, on average, approximately 45% anti-BCMA CAR+ cells at plating. Cells from each composition were incubated for 18 hours in the presence of beads from a 5 μg/ml, 50 μg/ml, or 200 μg/ml BCMA-conjugated bead composition at a ratio of 1:1 T cells to beads. As a control, cells were incubated with anti-CD3/anti-CD28 antibody-conjugated beads (positive control) or no added agent (negative control). […] Following the incubation, the cells were treated with reagents that allowed for extracellular and intracellular antibody staining by flow cytometry for the transcription factors Blimp1, EOMES, GATA-3, ikaros, helios, and Tbet and markers CD25, CD31, and PD-1.

K562-CD19 cells = test: Cytolytic activity of serially restimulated anti-CD19 CAR+ T cells against K562-CD19 cells; format: cell-based, human; conditions: 1 μM, 2nd and 4th restimulation
Protocol: Cells from each condition were plated in triplicate. Representative cell killing observed at the 2nd and 4th restimulation for both donors is shown in FIG. 18A (as normalized to K562—CD19-Nuc-labeled cells at t=0) or in FIG. 18B (% cell killing compared to vehicle only control (set at 100%)).

CAR-expressing T cells = test: RNA-seq and ATAC-seq of CAR-expressing T cells stimulated in the presence of lenalidomide; format: cell-based
Protocol: Directionality and significance of the effects on biological pathways are shown at 24 hours (FIG. 28A) or 7 days (FIG. 28B).
Importantly, the upregulation of IFN-γ and CD25 supported previous findings from chronic stimulation experiments.

T1 sequence (Q9UKT9 whole entry): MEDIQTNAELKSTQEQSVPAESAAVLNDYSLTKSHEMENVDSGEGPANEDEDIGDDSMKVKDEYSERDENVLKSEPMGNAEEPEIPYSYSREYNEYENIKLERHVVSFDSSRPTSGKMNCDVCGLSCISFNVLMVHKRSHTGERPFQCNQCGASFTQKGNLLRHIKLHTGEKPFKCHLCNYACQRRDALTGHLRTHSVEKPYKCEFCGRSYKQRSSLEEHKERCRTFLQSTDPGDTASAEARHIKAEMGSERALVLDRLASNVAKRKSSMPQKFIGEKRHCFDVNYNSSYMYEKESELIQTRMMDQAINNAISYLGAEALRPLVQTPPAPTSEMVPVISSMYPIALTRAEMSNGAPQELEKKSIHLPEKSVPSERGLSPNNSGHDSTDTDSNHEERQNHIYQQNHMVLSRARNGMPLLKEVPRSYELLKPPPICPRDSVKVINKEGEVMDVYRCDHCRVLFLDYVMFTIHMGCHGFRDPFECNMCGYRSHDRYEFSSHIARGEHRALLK
T1 sequence (Q96SW2 whole entry): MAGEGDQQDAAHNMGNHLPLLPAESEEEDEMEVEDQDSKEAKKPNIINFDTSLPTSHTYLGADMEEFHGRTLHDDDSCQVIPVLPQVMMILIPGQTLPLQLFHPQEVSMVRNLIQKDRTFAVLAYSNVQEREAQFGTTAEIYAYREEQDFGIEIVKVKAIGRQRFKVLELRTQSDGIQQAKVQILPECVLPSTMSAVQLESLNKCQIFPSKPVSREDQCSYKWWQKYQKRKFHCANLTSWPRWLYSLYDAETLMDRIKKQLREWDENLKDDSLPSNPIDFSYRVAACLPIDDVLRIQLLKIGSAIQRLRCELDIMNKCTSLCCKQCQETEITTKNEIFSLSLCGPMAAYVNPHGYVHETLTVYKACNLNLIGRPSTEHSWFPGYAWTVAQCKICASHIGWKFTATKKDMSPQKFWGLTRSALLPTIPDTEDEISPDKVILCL
T1 sequence (Q16531 whole entry partner): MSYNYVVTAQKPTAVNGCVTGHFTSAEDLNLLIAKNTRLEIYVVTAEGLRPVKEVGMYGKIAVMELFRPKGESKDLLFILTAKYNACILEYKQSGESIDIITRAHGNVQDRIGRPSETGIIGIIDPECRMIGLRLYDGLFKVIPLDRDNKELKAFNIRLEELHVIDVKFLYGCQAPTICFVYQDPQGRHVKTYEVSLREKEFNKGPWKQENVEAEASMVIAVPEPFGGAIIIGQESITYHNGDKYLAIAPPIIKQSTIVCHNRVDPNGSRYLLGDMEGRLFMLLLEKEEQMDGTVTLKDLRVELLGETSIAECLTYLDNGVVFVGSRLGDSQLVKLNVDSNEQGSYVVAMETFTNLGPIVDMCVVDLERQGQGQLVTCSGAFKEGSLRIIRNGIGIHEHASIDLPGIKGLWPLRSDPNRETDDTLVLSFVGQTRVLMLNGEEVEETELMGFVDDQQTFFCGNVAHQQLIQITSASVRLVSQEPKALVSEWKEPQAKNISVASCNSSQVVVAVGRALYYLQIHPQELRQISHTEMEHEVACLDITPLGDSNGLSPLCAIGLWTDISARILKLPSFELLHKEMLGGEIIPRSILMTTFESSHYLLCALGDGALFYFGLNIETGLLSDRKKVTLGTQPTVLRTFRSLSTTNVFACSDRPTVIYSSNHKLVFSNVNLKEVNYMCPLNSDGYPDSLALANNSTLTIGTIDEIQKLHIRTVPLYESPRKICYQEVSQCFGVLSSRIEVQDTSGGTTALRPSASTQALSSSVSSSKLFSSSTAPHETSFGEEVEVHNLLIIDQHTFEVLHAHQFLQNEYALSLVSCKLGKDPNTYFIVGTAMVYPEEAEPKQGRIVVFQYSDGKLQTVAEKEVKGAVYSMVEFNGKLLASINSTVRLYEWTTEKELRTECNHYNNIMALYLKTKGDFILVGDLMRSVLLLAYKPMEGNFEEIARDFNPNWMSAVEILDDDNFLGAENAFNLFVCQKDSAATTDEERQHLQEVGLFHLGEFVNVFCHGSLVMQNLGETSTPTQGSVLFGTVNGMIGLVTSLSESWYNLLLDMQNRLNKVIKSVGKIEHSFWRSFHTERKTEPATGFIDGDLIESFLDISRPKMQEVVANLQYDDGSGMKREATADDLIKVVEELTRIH

For `Cc1nc2cccc(N)c2c(=O)n1C1CCC(=O)NC1=O` (stereo not shown) [Compound 1, 3-(5-amino-2-methyl-4-oxo-4H-quinazolin-3-yl)-piperidine-2,6-dione], the “RL tumor spheroid sensitivity to compound” value (RL tumor spheroids) was “sensitive”, the “intracellular Aiolos expression” value (Aiolos) was “concentration dependent decrease” and the “levels of IFNγ and IL-2” value [1] was “increased levels”. For the same compound, the “IFN-γ, IL-2 and TNF-α production” value [2] was “increased relative to the vehicle control”, the “expression of genes associated with a hypofunctional, exhausted state” value (anti-CD19 CAR T cells) was “partial reversal of expressed genes” and the “expression of CD28” value [3] was “decreased in a dose-dependent manner”.

`O=C1CC[C@H](N2Cc3c(OCc4ccc(CN5CCOCC5)cc4)cccc3C2=O)C(=O)N1` [Compound 2, (S)-3-[4-(4-morpholin-4-ylmethyl-benzyloxy)-1-oxo-1,3-dihydro-isoindol-2-yl]-piperidine-2,6-dione] was tested, and the “RL tumor spheroid sensitivity to compound” value (RL tumor spheroids) was “sensitive”, the “RL tumor cell line sensitivity to monotherapy” value (RL CD19+ tumor cells; 0.01 μM or 0.1 μM doses) was “sensitive” and the “cytolytic CAR T cell function against RL tumor cells” value (RL CD19+ tumor cells; E:T 1:1) was “improved cytolytic CAR T cell function”. The “intracellular Aiolos expression” value (Aiolos) was “concentration dependent decrease”, the Granta-519 spheroid growth ([4]; 0.001 μM or 0.01 μM rescue, Day 9) was “improved CAR T cell cytolytic” and the IFNγ in supernatant ([4]; 5 days co-culture, rescue treatment) was “statistically significant increase”. For the same compound, the “improvement in cytolytic function compared with Compound 1” value ([4]; rescue treatment) was “greater following rescue treatment with Compound 2 than Compound 1” and the “cytolytic activity and cytokine production of chronically stimulated anti-BCMA CAR T cells” value [5] was “increased cytolytic activity”.

For `Nc1cccc2c1CN(C1CCC(=O)NC1=O)C2=O` (stereo not shown) [lenalidomide, 3-(4-amino-1-oxo-1,3-dihydro-2H-isoindol-2-yl)piperidine-2,6-dione], the “CD25 expression in CD4+ and CD8+ T cells” value (anti-CD19 CAR+ T cells; 1600 nM, E:T 2.5:1, 120 hours) was “higher levels”, the “surface expression of PD-1 in CD4+ or CD8+ T cells” value (anti-CD19 CAR+ T cells; up to 1600 nM, 120 hours) was “No difference” and the “expression level of Ikaros” value (anti-BCMA CAR+ T cells; 0.5 μM or 5 μM, 18 hours, all conditions) was “decreased”. The “proliferative capacity of T cells (CTV dye)” value (anti-BCMA CAR+ T cells; 5 μM, 200 μg BCMA beads 1:1, three days) was “increased”, the “surface expression of CD25 in CD4+ and CD8+ T cells” value (anti-BCMA CAR+ T cells; BCMA-conjugated beads or anti-CD3 stimulation) was “further increased” and the “IFN-γ, IL-2 and TNF-α production” value [2] was “increased relative to the vehicle control”. The “anti-CD19 CAR+ T cell cytolytic activity” value (K562-CD19 cells) was “decrease”, the “expression of genes associated with a hypofunctional, exhausted state” value (anti-CD19 CAR T cells) was “partial reversal of expressed genes” and the “expression of genes involved in T cell activation and signaling (RNA-seq)” value (CAR-expressing T cells; 24 hours or 7 days) was “increased expression of genes involved in T cell activation and signaling”. For the same compound, the Th2-associated gene signatures (CAR-expressing T cells; 7 days of stimulation) was “decreasing”, the “pathways associated with Th1 T-cell response and co-stimulation” value (CAR-expressing T cells; 7 days of stimulation) was “upregulated” and the “CD69 and CCR7 chromatin accessibility and gene transcription” value (CAR-expressing T cells; 7 days with stimulation) was “decrease”. For the same compound, the “chromatin accessibility at loci associated with IFN-γ and IL-2RA (CD25)” value (CAR-expressing T cells; 7 days with stimulation) was “significant increase in chromatin accessibility” and the “expression of CD28” value [3] was “decreased in a dose-dependent manner”.

Source: patent US20250186503A1, “METHODS AND COMBINATIONS FOR TREATMENT AND T CELL MODULATION” (Juno Therapeutics, Inc., priority 2018, published 2025)
